# Laboratory results as given in patent US20130324556A1, “Protease Activated Receptor 2 (PAR2) Antagonists” (priority 2011, published 2013).
# Counter-ions that a name gives are not always drawn.
# Molecular target: T1, human PAR2 receptor (Homo sapiens, UniProt P55085)
# T1 construct: expressed in transfected cells; host or cells: 1321N1 cells
# T1 sequence (P55085 26-397): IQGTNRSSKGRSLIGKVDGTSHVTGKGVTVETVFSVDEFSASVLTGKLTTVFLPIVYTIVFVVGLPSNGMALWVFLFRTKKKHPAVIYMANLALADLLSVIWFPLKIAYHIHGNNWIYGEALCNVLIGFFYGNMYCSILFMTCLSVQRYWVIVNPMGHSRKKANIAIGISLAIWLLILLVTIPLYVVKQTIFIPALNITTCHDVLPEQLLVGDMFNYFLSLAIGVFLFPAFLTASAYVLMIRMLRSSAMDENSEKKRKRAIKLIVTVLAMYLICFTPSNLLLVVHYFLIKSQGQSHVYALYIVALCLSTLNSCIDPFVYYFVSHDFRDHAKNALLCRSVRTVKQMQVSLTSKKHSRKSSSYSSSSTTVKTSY
# Test: PAR2 antagonist activity, calcium flux FLIPR assay (trypsin challenge)
# Type: cell-based
# Conditions: not given
# Experimental: The PAR2 receptor couples through the Gq signaling pathway and results in activation of calcium mobilization. The functional activity of test compounds was routinely tested by measuring the ability of compounds to antagonize PAR2 (trypsin challenge) activity in a dose dependent manner, in 1321N1 cells transfected with the human PAR2 receptor, using a calcium flux Fluorescent Imaging Plate Reader FLIPR assay.
# Briefly, test compounds were dissolved in DMSO to a concentration of 20 mM and stored in matrix screenmate racks. […] The compounds were then transferred to 384-well assay plates ready for use. […] The assay buffer used was HBSS buffer supplemented with 20 mM HEPES and 0.1% BSA (protease free), pH7.4. The loading/wash buffers were the same as the assay buffer.
# Sub-cultivations were performed every 2-3 d. […] After washing, the cells were loaded with Fluo-4 AM dye (Molecular probes) at 2 μM containing 0.48 μg/mL pluronic acid for 60 min at 37° C. under 5% CO2.
# A combined agonist/antagonist protocol was used to measure changes in intracellular calcium concentration. Compound (antagonist) was added to the cell plate using a Fluorometric Imaging Plate Reader (FLIPR) (Molecular Devices, Sunnyvale, Calif., USA). Basal fluorescence was recorded every second for 10 seconds prior to compound addition (10 μl) and fluorescence recorded every second for 1 min then every 6 seconds for a further 1 min. Trypsin (EC50 concentration) was then added using the FLIPR and fluorescence recorded as described above. Curve-fitting and parameter estimation were carried out using GraphPad Prism 4.0 (GraphPad Software Inc., San Diego, Calif.).
row,SMILES,IC50
1,"NCc1ccc(CNC(=O)N2CCC(Nc3ccccc3Cl)CC2)cc1 [Example 17, N-{[4-(Aminomethyl)phen-yl]methyl}-4-[(2-chlorophenyl)amino]piper-idine-1-carboxamide dihydrochloride]",< 5 µM

# Same assay, conditions: 1321N1 cells transfected with the human PAR2 receptor; trypsin (EC50 concentration) challenge; calcium flux FLIPR; read-out: PAR2 IC50
row,SMILES,IC50
1,"NCc1ccc(CNC(=O)N2CCC(Cc3ccccc3)CC2)cc1 [Example 1, (4-{[(4-Benzylpiperidin-1-yl)carbonylamino]methyl}phenyl)methanaminium chloride]",5 to 20 µM
2,"COc1cccc(CC2CCN(C(=O)NCc3ccc(CN)cc3)CC2)c1 [Example 2, 2,2,2-Trifluoroacetic acid; N-{[4-(aminomethyl)phenyl]methyl}-4-[(3-methoxyphenyl)methyl] piperidine-1-carboxamide]",20 to 50 µM
3,"COc1ccc(CC2CCN(C(=O)NCc3ccc(CN)cc3)CC2)cc1 [Example 3, 2,2,2-Trifluoroacetic acid; N-{[4-(aminomethyl)phenyl]methyl}-4-[(4-methoxyphenyl)methyl] piperidine-1-carboxamide]",< 5 µM
4,"NCc1ccc(CNC(=O)N2CCC(Cc3cccc(F)c3)CC2)cc1 [Example 4, 2,2,2-Trifluoroacetic acid; N-{[4-(aminomethyl)phenyl]methyl}-4-[(3-fluorophenyl)methyl] piperidine-1-carboxamide]",< 5 µM
5,"NCc1ccc(CNC(=O)N2CCC(Cc3ccc(F)cc3)CC2)cc1 [Example 5, N-{[4-(Aminomethyl)phen-yl]methyl}-4-[(4-fluorophenyl)methyl]piper-idine-1-carboxamide hydrochloride]",< 5 µM
6,"NCc1ccc(CNC(=O)N2CCC(Cc3ccc(Cl)cc3)CC2)cc1 [Example 6, 2,2,2-Trifluoroacetic acid; N-{[4-(aminomethyl)phenyl]methyl}-4-[(4-chlorophenyl)methyl] piperidine-1-carboxamide]",< 5 µM
7,"Cc1ccc(CC2CCN(C(=O)NCc3ccc(CN)cc3)CC2)cc1 [Example 7, 2,2,2-Trifluoroacetic acid; N-{[4-(aminomethyl)phenyl]methyl}-4-[(4-methylphenyl)methyl] piperidine-1-carboxamide]",5 to 20 µM
8,"NCc1ccc(CNC(=O)N2CCC(Cc3ccccn3)CC2)cc1 [Example 8, N-{[4-(Aminomethyl)phen-yl]methyl}-4-(pyridin-2-ylmethyl)piperidine-1-carboxamide]",5 to 20 µM
9,"NCc1ccc(CNC(=O)N2CCC(Cc3cccnc3)CC2)cc1 [Example 9, N-{[4-(Aminomethyl)phen-yl]methyl}-4-(pyridin-3-ylmethyl)piperidine-1-carboxamide]",20 to 50 µM
10,"NCc1ccc(CNC(=O)N2CCC(Cc3ccncc3)CC2)cc1 [Example 10, N-{[4-(Aminomethyl)phen-yl]methyl}-4-(pyridin-4-ylmethyl)piperidine-1-carboxamide]",5 to 20 µM
11,"NCc1ccc(CNC(=O)N2CCC(Oc3ccccc3)CC2)cc1 [Example 11, N-{[4-(Aminomethyl)phen-yl]methyl}-4-phenoxypiperidine-1-carboxamide]",20 to 50 µM
12,"NCc1ccc(CNC(=O)N2CCC(Oc3ccc(F)cc3)CC2)cc1 [Example 12, N-{[4-(Aminomethyl)phen-yl]methyl}-4-(4-fluorophenoxy)piperidine-1-carboxamide]",5 to 20 µM
13,"NCc1ccc(CNC(=O)N2CCC(Oc3ccccc3Cl)CC2)cc1 [Example 13, N-{[4-(Aminomethyl)phen-yl]methyl}-4-(2-chlorophenoxy)piperidine-1-carboxamide hydrochloride]",20 to 50 µM
14,"NCc1ccc(CNC(=O)N2CCC(Oc3cccc(Cl)c3)CC2)cc1 [Example 14, N-{[4-(Aminomethyl)phen-yl]methyl}-4-(3-chlorophenoxy)piperidine-1-carboxamide hydrochloride]",20 to 50 µM
15,"NCc1ccc(CNC(=O)N2CCC(Oc3ccc(Cl)cc3)CC2)cc1 [Example 15, N-{[4-(Aminomethyl)phen-yl]methyl}-4-(4-chlorophenoxy)piperidine-1-carboxamide hydrochloride]",20 to 50 µM
16,"NCc1ccc(CNC(=O)N2CCC(Sc3ccccc3)CC2)cc1 [Example 16, N-{[4-(Aminomethyl)phen-yl]methyl}-4-(phenylsulfanyl)piperidine-1-carboxamide hydrochloride]",5 to 20 µM
17,"NCc1ccc(CNC(=O)N2CCC(C(=O)c3ccc(F)cc3)CC2)cc1 [Example 18, 2,2,2-Trifluoroacetic acid;- N-{[4-(aminomethyl)phenyl]methyl}-4-[(4-fluorophenyl)carbonyl] piperidine-1-carboxamide]",5 to 20 µM

row,SMILES,IC50
1,"NCc1ccc(CNC(=O)N2CCC(C(O)c3ccc(F)cc3)CC2)cc1 (stereo not shown) [Example 19, N-{[4-(Aminomethyl)phen-yl]methyl}-4-[(4-fluorophenyl)(hydroxy)meth-yl] piperidine-1-carboxamide]",5 to 20 µM
2,"NCc1ccc(CNC(=O)N2CCC(c3ccccc3)CC2)cc1 [Example 20, N-{[4-(Aminomethyl)phen-yl]methyl}-4-phenylpiperidine-1-carboxamide hydrochloride]",20 to 50 µM
3,"NCc1ccc(CNC(=O)N2CCCC(Cc3ccccc3)C2)cc1 (stereo not shown) [Example 21, 2,2,2-Trifluoroacetic acid; N-{[4-(aminomethyl)phenyl]methyl}-3-benzylpiperidine-1-carboxamide]",50 to 100 µM
4,"NCc1ccc(CNC(=O)N2CCC(CCc3ccccc3)CC2)cc1 [Example 22, N-{[4-(Aminomethyl)phen-yl]methyl}-4-(2-phenylethyl)piperidine-1-carboxamide]",20 to 50 µM
5,"NCc1ccc(CNC(=O)C2CCN(Cc3cccc(F)c3)CC2)cc1 [Example 23, N-{[4-(Aminomethyl)phen-yl]methyl}-1-[(3-fluorophenyl)methyl]piper-idine-4-carboxamide]",5 to 20 µM
6,"NCc1ccc(CNC(=O)N2CCN(Cc3ccccc3)CC2)cc1 [Example 24, N-{[4-(Aminomethyl)phen-yl]methyl}-4-benzylpiperazine-1-carboxamide]",5 to 20 µM
7,"NCc1ccc(CNC(=O)N2CCN(Cc3ccccc3Cl)CC2)cc1 [Example 25, N-{[4-(Aminomethyl)phen-yl]methyl]-4-[(2-chlorophenyl)meth-yl]piperazine-1-carboxamide di-hydrochloride]",5 to 20 µM
8,"NCc1ccc(CNC(=O)N2CCN(C(=O)c3ccccc3)CC2)cc1 [Example 26, 2,2,2-Trifluoroacetic acid; N-{[4-(aminomethyl)phenyl]methyl}-4-benzoylpiperazine-1-carboxamide]",20 to 50 µM
9,"NCc1ccc(CNC(=O)N2CCN(c3ccccc3)CC2)cc1 [Example 27, N-{[4-(Aminomethyl)phen-yl]methyl}-4-phenyl piperazine-1-carboxamide dihydrochloride]",20 to 50 µM
10,"NCc1ccc(CNC(=O)N2CCC(Cc3ccccc3)C2)cc1 (stereo not shown) [Example 28, N-{[4-(Aminomethyl)phen-yl]methyl}-3-benzylpyrrolidine-1-carboxamide]",20 to 50 µM
11,"NCc1ccc(CNC(=O)N2CCC(c3ccccc3)C2)cc1 (stereo not shown) [Example 29, 2,2,2-Trifluoroacetic acid; N-{[4-(aminomethyl)phenyl]methyl}-3-phenylpyrrolidine-1-carboxamide]",50 to 100 µM
12,"CN(Cc1ccc(CN)cc1)C(=O)N1CCC(Cc2ccccc2)CC1 [Example 30, 2,2,2-Trifluoroacetic acid; N-{[4-(aminomethyl)phenyl]methyl}-4-benzyl-N-methylpiperidine-1-carboxamide]",50 to 100 µM
13,"NCc1ccc(CNC(=O)N2CCC(C(=O)N3CCCCC3)CC2)cc1 [Example 31, N-{[4-(Aminomethyl)phen-yl]methyl}-4-[(piperidin-1-yl)carbon-yl]piperidine-1-carboxamide hydrochloride]",50 to 100 µM
14,"NCc1ccc(CNC(=O)N2CCC(C(=O)N3CCc4ccccc43)CC2)cc1 [Example 32, 2,2,2-Trifluoroacetic acid; N-{[4-(aminomethyl)phenyl]methyl}-4-[(2,3-dihydro-1H-indol-1-yl)carbonyl]piper-idine-1-carboxamide]",50 to 100 µM
15,"NCc1ccc(CNC(=O)N2CCC(n3c(=O)[nH]c4ccccc43)CC2)cc1 [Example 33, N-{[4-(Aminomethyl)phen-yl]methyl}-4-(2-oxo-2,3-dihydro-1H-1,3-benzodiazol-1-yl)piperidine-1-carboxa-mide hydrochloride]",20 to 50 µM
16,"NCc1ccc(CNC(=O)N2CCC(c3nc4ccccc4o3)CC2)cc1 [Example 34, N-{[4-(Aminomethyl)phen-yl]methyl}-4-(1,3-benzoxazol-2-yl)pipe-ridine-1-carboxamide]",< 5 µM
